From patent US20260042764A1, “COMPOSITIONS AND METHODS FOR INHIBITION OF KRAS” (TheRas, Inc., priority 2022, published 2026)
pIC50: −log10 of the molar value.

Experiments:
[1] = target: T1, Avi-KRAS G12V (1-169) GppNHp/RAF1 RBD-3xFLAG (52-151) (Homo sapiens, UniProt P01116, G12V); assay: Raf1-KRAS G12V-GppNHP disruption HTRF assay (Biological Example 1); format: binding; settings: KRAS G12V-GppNHp/RAF1 RBD HTRF
T1 construct: Avi-KRAS G12V (1-169)
Summary of the method: (§1)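 HTRF PPI disruption; buffer 50 mM Tris pH 7.5, 100 mM NaCl, 5 mM MgCl2, 0.1% BSA, 0.01% Tween, 10% DMSO. Protein mix 1 h RT shaking, reagent mix 1 h RT shaking. Data as % activity vs DMSO (100%).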

[2] = target: T2, Avi-KRAS G12V (2-169) GTP/RAF1 RBD-3xFLAG (51-131) (Homo sapiens, UniProt P01116, G12V); assay: Raf1-KRAS G12V-GTP disruption HTRF assay (Biological Example 3); format: binding; settings: KRAS G12V, GTP-loaded
T2 construct: Avi-KRAS G12V (2-169)
T2 sequence (P01116 2-169 isoform P01116-2 G12V): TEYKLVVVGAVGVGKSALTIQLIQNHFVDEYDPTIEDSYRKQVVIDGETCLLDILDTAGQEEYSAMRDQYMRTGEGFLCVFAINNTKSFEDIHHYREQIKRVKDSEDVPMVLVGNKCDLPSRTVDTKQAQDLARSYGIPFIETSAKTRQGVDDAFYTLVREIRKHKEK
Summary of the method: (§2)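 HTRF PPI read-out (ex 320 nm, em 615 nm) after 1 h RT incubation with shaking; data as % activity vs DMSO (100%), IC50 from curve fit. Complex 50 nM, RBD reagent 75 nM; compound 30-0.005 μM, 3-fold.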

[3] = target: T3, Avi-KRAS G12R (1-169) GppNHp/RAF1 RBD-3xFLAG (52-151) (Homo sapiens, UniProt P01116, G12R); assay: Raf1-KRAS G12R-GppNHP disruption HTRF assay (Biological Example 1); format: binding; settings: KRAS G12R-GppNHp/RAF1 RBD HTRF
T3 construct: Avi-KRAS G12R (1-169)
T3 sequence (P01116 1-169 isoform P01116-2 G12R): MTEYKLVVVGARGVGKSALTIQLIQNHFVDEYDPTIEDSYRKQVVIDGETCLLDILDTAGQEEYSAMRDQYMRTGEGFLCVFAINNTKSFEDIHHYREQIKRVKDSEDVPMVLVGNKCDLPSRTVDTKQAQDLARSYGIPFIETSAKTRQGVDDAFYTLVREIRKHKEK
Summary of the method: as §1

[4] = target: T4, Avi-KRAS WT (2-169) GTP/RAF1 RBD-3xFLAG (51-131) (Homo sapiens, UniProt P01116); assay: Raf1-KRAS WT-GTP disruption HTRF assay (Biological Example 3); format: binding; settings: KRAS WT, GTP-loaded
T4 construct: Avi-KRAS WT (2-169)
T4 sequence (P01116 2-169 isoform P01116-2): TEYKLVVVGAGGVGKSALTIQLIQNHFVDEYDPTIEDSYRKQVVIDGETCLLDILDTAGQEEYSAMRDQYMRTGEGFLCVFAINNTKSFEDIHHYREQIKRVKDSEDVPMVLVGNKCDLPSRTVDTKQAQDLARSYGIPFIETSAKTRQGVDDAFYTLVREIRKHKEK
Summary of the method: as §2

[5] = target: T5, Avi-KRAS WT (1-169) GppNHp/RAF1 RBD-3xFLAG (52-151) (Homo sapiens, UniProt P01116); assay: Raf1-KRAS WT-GppNHP disruption HTRF assay (Biological Example 1); format: binding; settings: KRAS WT-GppNHp/RAF1 RBD HTRF
T5 construct: Avi-KRAS WT (1-169)
T5 sequence (P01116 1-169 isoform P01116-2): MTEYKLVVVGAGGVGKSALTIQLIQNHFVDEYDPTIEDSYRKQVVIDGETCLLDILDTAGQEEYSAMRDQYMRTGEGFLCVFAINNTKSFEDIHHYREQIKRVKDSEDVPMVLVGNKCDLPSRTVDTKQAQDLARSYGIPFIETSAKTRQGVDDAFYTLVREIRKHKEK
Summary of the method: as §1

GP2d cells (KRAS G12D) = assay: Cell-based pERK HTRF assay in GP2d cell (Biological Example 2); settings: GP2d (KRAS G12D) cells
Summary of the method: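 HTRF read-out of pERK (excitation 320 nm, emission 615 nm) after lysates sat 4–24 h at room temperature with Eu cryptate and d2 antibodies.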

T1 sequence (P01116 1-169 isoform P01116-2 G12V): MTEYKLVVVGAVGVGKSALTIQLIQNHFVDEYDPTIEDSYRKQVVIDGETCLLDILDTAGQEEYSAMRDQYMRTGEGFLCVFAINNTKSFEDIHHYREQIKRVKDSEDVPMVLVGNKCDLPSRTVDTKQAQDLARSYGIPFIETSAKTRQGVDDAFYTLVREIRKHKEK

SMILES	pIC50 [1]	pIC50 [2]	pIC50 [3]	pIC50 [4]	pIC50 [5]	pIC50 (GP2d cells (KRAS G12D); GP2d)	pIC50 (GP2d cells (KRAS G12D); GP2d, pERK HTRF)	pIC50 (GP2d cells (KRAS G12D); pERK HTRF)
CCC(=O)N1CC[C@@H](N(CC)c2nc(OC[C@@]34CCCN3C[C@H](F)C4)nc3c(F)c(-c4ccc(F)c5sc(N)c(C#N)c45)c(C(F)(F)F)cc23)[C@H]1C (atropisomer, axis not shown) [Compound 523]	> 7.00	≥ 7.00	> 7.00	≥ 7.00	> 7.00	> 7.00	–	> 7.00
CCN(c1nc(OC[C@@]23CCCN2C[C@H](F)C3)nc2c(F)c(-c3ccc(F)c4sc(N)c(C#N)c34)c(C(F)(F)F)cc12)[C@H]1C[C@H]2CN(C)C(=O)N2C1 (atropisomer, axis not shown; (aS)) [Compound 543, 2-amino-4-((S)-4-(ethyl((6S,7aS)-2-methyl-3-oxohexahydro-1H-pyrrolo[1,2-c]imidazol-6-yl)amino)-8-fluoro-2-(((2R,7aS)-2-fluorotetrahydro-1H-pyrrolizin-7a(5H)-yl)methoxy)-6-(trifluoromethyl)quinazolin-7-yl)-7-fluorobenzo[b]thiophene-3-carbonitrile]	> 7.00	≥ 7.00	> 7.00	≥ 7.00	> 7.00	> 7.00	> 7.00	–
CCN1C[C@@H](N(CC)c2nc(OC[C@@]34CCCN3C[C@H](F)C4)nc3c(F)c(-c4ccc(F)c5sc(N)c(C#N)c45)c(C(F)(F)F)cc23)CC1=O [Compound 529, 2-amino-4-(4-(ethyl((S)-1-ethyl-5-oxopyrrolidin-3-yl)amino)-8-fluoro-2-(((2R,7aS)-2-fluorotetrahydro-1H-pyrrolizin-7a(5H)-yl)methoxy)-6-(trifluoromethyl)quinazolin-7-yl)-7-fluorobenzo[b]thiophene-3-carbonitrile]	> 7.00	≥ 7.00	> 7.00	≥ 7.00	> 7.00	> 7.00	> 7.00	–
CCN(c1nc(OC[C@@]23CCCN2C[C@H](F)C3)nc2c(F)c(-c3ccc(F)c4sc(N)c(C#N)c34)c(C(F)(F)F)cc12)[C@H]1C[C@H]2COC(=O)N2C1 (atropisomer, axis not shown; (aS)) [Compound 518, 2-amino-4-((S)-4-(ethyl((6S,7aS)-3-oxotetrahydro-1H,3H-pyrrolo[1,2-c]oxazol-6-yl)amino)-8-fluoro-2-(((2R,7aS)-2-fluorotetrahydro-1H-pyrrolizin-7a(5H)-yl)methoxy)-6-(trifluoromethyl)quinazolin-7-yl)-7-fluorobenzo[b]thiophene-3-carbonitrile]	> 7.00	≥ 7.00	> 7.00	≥ 7.00	> 7.00	> 7.00	> 7.00	–
CCN(c1nc(OC[C@@]23CCCN2C[C@H](F)C3)nc2c(F)c(-c3ccc(F)c4sc(N)c(C#N)c34)c(C(F)(F)F)cc12)[C@@H]1C[C@@H](C)N(C(C)=O)C1 (atropisomer, axis not shown) [Compound 527]	6.00 to 7.00	6.00 to 7.00	6.00 to 7.00	6.00 to 7.00	6.00 to 7.00	> 7.00	> 7.00	–

Now from value to compound:

pIC50 [1]	pIC50 [2]	pIC50 [3]	pIC50 [4]	pIC50 [5]	pIC50 (GP2d cells (KRAS G12D); GP2d)	pIC50 (GP2d cells (KRAS G12D); GP2d, pERK HTRF)	pIC50 (GP2d cells (KRAS G12D); pERK HTRF)	SMILES
6.00 to 7.00	5.00 to 6.00	6.00 to 7.00	6.00 to 7.00	6.00 to 7.00	> 7.00	> 7.00	–	CN(C)C(=O)[C@@H]1CC[C@@H](N(C)c2nc(OC[C@@]34CCCN3C[C@H](F)C4)nc3c(F)c(-c4ccc(F)c5sc(N)c(C#N)c45)c(C(F)(F)F)cc23)C1 (atropisomer, axis not shown) [Compound 512]
6.00 to 7.00	6.00 to 7.00	> 7.00	6.00 to 7.00	6.00 to 7.00	> 7.00	> 7.00	–	CCN(c1nc(OC[C@@]23CCCN2C[C@H](F)C3)nc2c(F)c(-c3ccc(F)c4sc(N)c(C#N)c34)c(C(F)(F)F)cc12)C1C[C@@H](C)N(C(=O)C2CC2)C1 (stereo partly drawn) [Compound 516]
> 7.00	6.00 to 7.00	> 7.00	6.00 to 7.00	> 7.00	> 7.00	> 7.00	–	CCN(c1nc(OC[C@@]23CCCN2C[C@H](F)C3)nc2c(F)c(-c3ccc(F)c4sc(N)c(C#N)c34)c(C(F)(F)F)cc12)[C@H]1CCN(C(=O)c2ccon2)C1 (atropisomer, axis not shown) [Compound 554]
> 7.00	≥ 7.00	> 7.00	6.00 to 7.00	> 7.00	> 7.00	> 7.00	–	CCN(c1nc(OC[C@@]23CCCN2C[C@H](F)C3)nc2c(F)c(-c3ccc(F)c4sc(N)c(C#N)c34)c(C(F)(F)F)cc12)[C@@H]1CC(=O)N(C2CC2)C1 [Compound 537]
